Test results reported in ChEMBL document CHEMBL4819078, “Bioactive Dimeric Tetrahydroxanthones with 2,2'- and 4,4'-Axial Linkages from the Entomopathogenic Fungus Aschersonia confluens” (J Nat Prod, 2021).
≈ marks a conversion by molar mass, not a printed value. Calls of active or inactive are those of the source. No cut-off for these calls is given here.

Tests used:
MCF7 = test: cells; settings: Homo sapiens
Description: Cytotoxicity against human MCF7 cells assessed as reduction in cell viability by resazurin based fluorescence assay

[1] = test system: Mycobacterium tuberculosis; test: Antitubercular activity against Mycobacterium tuberculosis H37Ra ATCC 25177 assessed as reduction in bacterial growth after 6 to 8 days by green fluorescent protein microplate assay; format: functional; settings: time 6-8 day
Pseudomonas aeruginosa = test: Antibacterial activity against Pseudomonas aeruginosa ATCC 15692 by CLSI based microplate assay; format: functional
Enterococcus faecium = test: Antibacterial activity against Enterococcus faecium ATCC 51559 by CLSI based microplate assay; format: functional
Candida albicans = test: Antifungal activity against Candida albicans ATCC 90028 by resazurin microplate assay; format: functional
Bacillus cereus = test: Antibacterial activity against Bacillus cereus ATCC 11778 by resazurin microplate assay; format: functional
NCI-H187 = test: cells; settings: Homo sapiens
Description: Cytotoxicity against human NCI-H187 cells assessed as reduction in cell viability by resazurin based fluorescence assay

Klebsiella pneumoniae = test: Antibacterial activity against Klebsiella pneumoniae ATCC 700603 by CLSI based microplate assay; format: functional
Plasmodium falciparum = test: Antimalarial activity against multi drug-resistant Plasmodium falciparum K1 infected in human erythrocytes assessed as inhibition of [G-3H]hypoxanthine uptake preincubated for 24 hrs followed by [G-3H]hypoxanthine addition and measured after 18 hrs by scintillation counting method; format: functional, organism-based
Escherichia coli = test: Antibacterial activity against Escherichia coli ATCC 25922 by CLSI based microplate assay; format: functional
Vero = test: Cytotoxicity against African green monkey Vero cells by green fluorescent protein microplate assay; format: cell-based; settings: Chlorocebus sabaeus
Acinetobacter baumannii = test: Antibacterial activity against Acinetobacter baumannii ATCC 19606 by CLSI based microplate assay; format: functional; settings: ATCC 19606 = CIP 70.34 = JCM 6841
KB = test: cells; settings: Homo sapiens
Description: Cytotoxicity against human KB cells assessed as reduction in cell viability by resazurin based fluorescence assay

`CO[C@H]1CC=C2C(=O)c3c(O)cc(C)c(-c4c(C)cc(O)c5c4O[C@]4(C)C(=CC[C@H](OC)[C@H]4O)C5=O)c3O[C@@]2(C)[C@@H]1O` was tested, and the IC50 (MCF7) was 7500 nM, the MIC [1] was 6.3 µg/mL (≈ 10.9 µM) and the Activity (Pseudomonas aeruginosa) was “inactive”. The MIC (Enterococcus faecium) was > 50 µg/mL, the Activity (Candida albicans) was “inactive” and the Activity (Bacillus cereus) was “inactive”. For the same compound, the IC50 (NCI-H187) was 800 nM, the Activity (Klebsiella pneumoniae) was “inactive” and the IC50 (Plasmodium falciparum) was 900 nM. For the same compound, the Activity (Escherichia coli) was “inactive”, the IC50 (Vero) was 1100 nM and the Activity (Acinetobacter baumannii) was “inactive”. It also gave an IC50 (KB) of 1500 nM.

For `CO[C@H]1CC=C2C(=O)c3c(O)cc(C)c(-c4c(C)cc(O)c5c4O[C@]4(C)C(=CC(=O)[C@H](OC)[C@H]4O)C5=O)c3O[C@@]2(C)[C@@H]1O`, the IC50 (MCF7) was 25500 nM, the MIC [1] was 12.5 µg/mL (≈ 21.1 µM) and the Activity (Pseudomonas aeruginosa) was “inactive”. For the same compound, the MIC (Enterococcus faecium) was > 50 µg/mL, the Activity (Candida albicans) was “inactive” and the Activity (Bacillus cereus) was “inactive”. The IC50 (NCI-H187) was 1700 nM, the Activity (Klebsiella pneumoniae) was “inactive” and the IC50 (Plasmodium falciparum) was 6100 nM. For the same compound, the Activity (Escherichia coli) was “inactive”, the IC50 (Vero) was 4200 nM and the Activity (Acinetobacter baumannii) was “inactive”. For the same compound, the IC50 (KB) was 4900 nM.

`O=C(N[C@H](CO)[C@H](O)c1ccc([N+](=O)[O-])cc1)C(Cl)Cl` [CHLORAMPHENICOL] gave an MIC (Pseudomonas aeruginosa) of 8 µg/mL (≈ 24.8 µM).

For `CO[C@H]1CC=C2C(=O)c3c(cc(C)c(-c4c(C)cc5c(c4O)C(=O)C4=CC[C@H](OC)[C@@H](O)[C@]4(C)O5)c3O)O[C@@]2(C)[C@@H]1O` [ASCHERXANTHONE A], the IC50 (MCF7) was 16800 nM, the MIC [1] was 6.3 µg/mL (≈ 10.9 µM) and the Activity (Pseudomonas aeruginosa) was “inactive”. For the same compound, the MIC (Enterococcus faecium) was > 50 µg/mL, the Activity (Candida albicans) was “inactive” and the Activity (Bacillus cereus) was “inactive”. The IC50 (NCI-H187) was 500 nM, the Activity (Klebsiella pneumoniae) was “inactive” and the IC50 (Plasmodium falciparum) was 1000 nM. The Activity (Escherichia coli) was “inactive”, the IC50 (Vero) was 900 nM and the Activity (Acinetobacter baumannii) was “inactive”. The IC50 (KB) was 3200 nM.

`COC1=C[C@]2(C)Oc3c(c(O)cc(C)c3-c3c(C)cc(O)c4c3O[C@]3(C)C(=CC[C@H](OC)[C@H]3O)C4=O)C(=O)[C@@H]2CC1=O` was tested, and the IC50 (MCF7) was 17600 nM, the MIC [1] was 12.5 µg/mL (≈ 21.7 µM) and the Activity (Pseudomonas aeruginosa) was “inactive”. For the same compound, the MIC (Enterococcus faecium) was > 50 µg/mL, the Activity (Candida albicans) was “inactive” and the Activity (Bacillus cereus) was “inactive”. The IC50 (NCI-H187) was 3500 nM, the Activity (Klebsiella pneumoniae) was “inactive” and the IC50 (Plasmodium falciparum) was 4800 nM. The Activity (Escherichia coli) was “inactive”, the IC50 (Vero) was 6100 nM and the Activity (Acinetobacter baumannii) was “inactive”. It also gave an IC50 (KB) of 9700 nM.

Compound `O[C@@H](c1cc(C(F)(F)F)nc2c(C(F)(F)F)cccc12)[C@H]1CCCCN1` [(S,R)-MEFLOQUINE] has an IC50 (Plasmodium falciparum) of 70 nM.

In the case of `CO[C@H]1CC=C2C(=O)c3c(cc(C)c(-c4c(C)cc5c(c4O)C(=O)C4=CC[C@H](OC)[C@H](O)[C@]4(C)O5)c3O)O[C@@]2(C)[C@@H]1O`, the IC50 (MCF7) is reported as > 86400 nM, the MIC [1] is reported as 25 µg/mL (≈ 43.2 µM) and the Activity (Pseudomonas aeruginosa) is reported as “inactive”. For the same compound, the MIC (Enterococcus faecium) was 12.5 µg/mL (≈ 21.6 µM), the Activity (Candida albicans) was “inactive” and the Activity (Bacillus cereus) was “inactive”. The IC50 (NCI-H187) was 1200 nM, the Activity (Klebsiella pneumoniae) was “inactive” and the IC50 (Plasmodium falciparum) was 1000 nM. For the same compound, the Activity (Escherichia coli) was “inactive”, the IC50 (Vero) was 2400 nM and the Activity (Acinetobacter baumannii) was “inactive”. For the same compound, the IC50 (KB) was 3400 nM.

Compound `CO[C@H]1/C=C/O[C@@]2(C)Oc3c(C)c(O)c4c(O)c(c(/C=N/N5CCN(C)CC5)c(O)c4c3C2=O)NC(=O)/C(C)=C\C=C\[C@H](C)[C@H](O)[C@@H](C)[C@@H](O)[C@@H](C)[C@H](OC(C)=O)[C@@H]1C` [RIFAMPIN] has an MIC (Enterococcus faecium) of 3.1 µg/mL (≈ 3.77 µM), an MIC (Klebsiella pneumoniae) of 25 µg/mL (≈ 30.4 µM) and an MIC (Escherichia coli) of 6.3 µg/mL (≈ 7.66 µM). The MIC (Acinetobacter baumannii) was 3.1 µg/mL (≈ 3.77 µM).

`CC1COc2c(N3CCN(C)CC3)c(F)cc3c(=O)c(C(=O)O)cn1c23` (configuration not stated) [OFLOXACIN] gave an MIC [1] of 0.4 µg/mL (≈ 1.11 µM).

`CO[C@H]1CC=C2C(=O)c3c(O)cc(C)c(-c4c(C)cc(O)c5c4O[C@]4(C)C(=CC[C@H](OC)[C@@H]4O)C5=O)c3O[C@@]2(C)[C@@H]1O` was tested, and the IC50 (MCF7) was 27900 nM, the MIC [1] was 6.3 µg/mL (≈ 10.9 µM) and the Activity (Pseudomonas aeruginosa) was “inactive”. The MIC (Enterococcus faecium) was > 50 µg/mL, the Activity (Candida albicans) was “inactive” and the Activity (Bacillus cereus) was “inactive”. The IC50 (NCI-H187) was 2800 nM, the Activity (Klebsiella pneumoniae) was “inactive” and the IC50 (Plasmodium falciparum) was 2600 nM. The Activity (Escherichia coli) was “inactive”, the IC50 (Vero) was 4200 nM and the Activity (Acinetobacter baumannii) was “inactive”. It also gave an IC50 (KB) of 4700 nM.

With `CO[C@H]1[C@H](O)C=C2C(=O)c3c(O)cc(C)c(-c4c(C)cc(O)c5c4O[C@]4(C)C(=CC[C@H](OC)[C@H]4O)C5=O)c3O[C@@]2(C)[C@@H]1O` the IC50 (MCF7) was 63200 nM, the MIC [1] was 25 µg/mL (≈ 42 µM) and the Activity (Pseudomonas aeruginosa) was “inactive”. The MIC (Enterococcus faecium) was > 50 µg/mL, the Activity (Candida albicans) was “inactive” and the Activity (Bacillus cereus) was “inactive”. The IC50 (NCI-H187) was 1000 nM, the Activity (Klebsiella pneumoniae) was “inactive” and the IC50 (Plasmodium falciparum) was 1700 nM. The Activity (Escherichia coli) was “inactive”, the IC50 (Vero) was 2200 nM and the Activity (Acinetobacter baumannii) was “inactive”. It also gave an IC50 (KB) of 63500 nM.

`CC[C@@H](CO)NCCN[C@@H](CC)CO` [ETHAMBUTOL] was tested, and the MIC [1] was 0.9 µg/mL (≈ 4.4 µM).

`CC/C(=C(\c1ccccc1)c1ccc(OCCN(C)C)cc1)c1ccccc1` [TAMOXIFEN] showed an IC50 (MCF7) of 19200 nM.

`Cc1c2ccncc2c(C)c2c1[nH]c1ccccc12` [ELLIPTECINE] was tested, and the IC50 (NCI-H187) was 9100 nM, the IC50 (Vero) was 7900 nM and the IC50 (KB) was 6100 nM.

Work on `CN[C@H](CC(C)C)C(=O)N[C@H]1C(=O)N[C@@H](CC(N)=O)C(=O)N[C@H]2C(=O)N[C@H]3C(=O)N[C@H](C(=O)N[C@H](C(=O)O)c4cc(O)cc(O)c4-c4cc3ccc4O)[C@H](O)c3ccc(c(Cl)c3)Oc3cc2cc(c3O[C@@H]2O[C@H](CO)[C@@H](O)[C@H](O)[C@H]2O[C@H]2C[C@](C)(N)[C@H](O)[C@H](C)O2)Oc2ccc(cc2Cl)[C@H]1O` [VANCOMYCIN] yielded an MIC (Bacillus cereus) of 2 µg/mL (≈ 1.38 µM).

`NNC(=O)c1ccncc1` [ISONIAZID] gave an MIC [1] of 0.1 µg/mL (≈ 0.729 µM).

`C[C@@H]1[C@H](O)[C@@H](C)/C=C/C=C/C=C/C=C/C=C/C=C/C=C/[C@H](O[C@@H]2O[C@H](C)[C@@H](O)[C@H](N)[C@@H]2O)C[C@@H]2O[C@](O)(C[C@@H](O)C[C@@H](O)[C@H](O)CC[C@@H](O)C[C@@H](O)CC(=O)O[C@H]1C)C[C@H](O)[C@H]2C(=O)O` [AMPHOTERICIN B] gave an MIC (Candida albicans) of 0.1 µg/mL (≈ 0.108 µM).

`CN[C@@H]1[C@H](O[C@H]2[C@H](O[C@H]3[C@H](O)[C@@H](O)[C@H](N=C(N)N)[C@@H](O)[C@@H]3N=C(N)N)O[C@@H](C)[C@]2(O)C=O)O[C@@H](CO)[C@H](O)[C@H]1O` [STREPTOMYCIN] showed an MIC [1] of 0.3 µg/mL (≈ 0.516 µM).

`CC[C@H]1OC(=O)[C@H](C)[C@@H](O[C@H]2C[C@@](C)(OC)[C@@H](O)[C@H](C)O2)[C@H](C)[C@@H](O[C@@H]2O[C@H](C)C[C@H](N(C)C)[C@H]2O)[C@](C)(O)C[C@@H](C)C(=O)[C@H](C)[C@@H](O)[C@]1(C)O` [ERYTHROMYCIN] showed an MIC (Pseudomonas aeruginosa) of 32 µg/mL (≈ 43.6 µM), an MIC (Klebsiella pneumoniae) of 200 µg/mL (≈ 273 µM) and an MIC (Escherichia coli) of 25 µg/mL (≈ 34.1 µM). It also gave an MIC (Acinetobacter baumannii) of 12.5 µg/mL (≈ 17 µM).

`CO[C@H]1[C@H](O)C=C2C(=O)c3c(cc(C)c(-c4c(C)cc5c(c4O)C(=O)C4=CC[C@H](OC)[C@@H](O)[C@]4(C)O5)c3O)O[C@@]2(C)[C@@H]1O` was tested, and the IC50 (MCF7) was 12800 nM, the MIC [1] was 6.3 µg/mL (≈ 10.6 µM) and the Activity (Pseudomonas aeruginosa) was “inactive”. For the same compound, the MIC (Enterococcus faecium) was > 50 µg/mL, the Activity (Candida albicans) was “inactive” and the Activity (Bacillus cereus) was “inactive”. The IC50 (NCI-H187) was 1000 nM, the Activity (Klebsiella pneumoniae) was “inactive” and the IC50 (Plasmodium falciparum) was 600 nM. The Activity (Escherichia coli) was “inactive”, the IC50 (Vero) was 1200 nM and the Activity (Acinetobacter baumannii) was “inactive”. It also gave an IC50 (KB) of 1300 nM.

In the case of `CO[C@H]1CC=C2C(=O)c3c(cc(C)c(-c4c(C)cc5c(c4O)C(=O)C4=CC[C@H](OC)[C@H](OC(C)=O)[C@]4(C)O5)c3O)O[C@@]2(C)[C@@H]1O`, the IC50 (MCF7) is reported as 7200 nM, the MIC [1] is reported as 6.3 µg/mL (≈ 10.2 µM) and the Activity (Pseudomonas aeruginosa) is reported as “inactive”. For the same compound, the MIC (Enterococcus faecium) was 12.5 µg/mL (≈ 20.1 µM), the Activity (Candida albicans) was “inactive” and the Activity (Bacillus cereus) was “inactive”. The IC50 (NCI-H187) was 1000 nM, the Activity (Klebsiella pneumoniae) was “inactive” and the IC50 (Plasmodium falciparum) was 1400 nM. The Activity (Escherichia coli) was “inactive”, the IC50 (Vero) was 900 nM and the Activity (Acinetobacter baumannii) was “inactive”. For the same compound, the IC50 (KB) was 1500 nM.
